In US20240084258A1, “METHOD FOR PREPARING BROWN ADIPOCYTE” (KYOTO PREFECTURAL PUBLIC UNIVERSITY CORPORATION, priority 2015, published 2024):
Where two headings read alike, the source gives them in different places.

Tested on: human dermal fibroblasts (HDFs)
Description: Human normal skin-derived fibroblast (human dermal fibroblasts; HDFs) were suspended in a normal medium (10% FBS-added Dulbecco's modified minimum essential medium; DMEM). This was seeded in a 12-well plate at a concentration of 3×10^4 cells/well and culturing was started at 5% CO2/95% humidified air, 37° C. The next day (day 0), the culture supernatant was removed by suction and a normal medium (group 1), an adipocyte induction medium (group 2), or an adipocyte induction medium (groups 3-8) added with ALK5 inhibitor II at concentration of 4 μM was added at 1 mL/well.
The adipocyte induction medium is DMEM added with 1 nM T3, 1 μM Rosiglitazone, 0.5 mM isobutylmethylxanthine (IBMX), 0.5 μM dexamethason, 1 μg/mL Insulin and 10% FBS.
Once every 2 days, the medium was substituted by a fresh one. In groups 3-7, the cells were cultured in an adipocyte induction medium added with ALK5 inhibitor II only in the periods of Days 0-2, Days 0-4, Days 0-6, Days 0-8 and Days 0-10, respectively, and thereafter cultured in an adipocyte induction medium without addition of ALK5 inhibitor II. In group 8, the cells were cultured in an adipocyte induction medium added with ALK5 inhibitor II throughout the whole period of Days 0-14. On day 14, the medium was removed from each well by suction, the cells were washed with PBS(−) and total RNA was extracted from the cells by using RNA easy Mini Kit manufactured by Qiagen. cDNA was synthesized from the RNA by using Rever Tra Ace qPCR RT Master Mix. The cDNA was admixed with Real-time PCR Master Mix, primers specific to UCP1 gene or β actin gene and Taqman probe. qRT-PCR was performed using AB7300 Real-time PCR system. The mRNA level of UCP1 gene was quantified as a ratio to β actin gene mRNA and calculated with the value of fibroblast cultured in the normal medium as 1.

In the case of Cc1cccc(-c2n[nH]cc2-c2ccc3ncccc3n2)n1 [ALK5 Inhibitor II, 2-(3-(6-Methylpyridin-2-yl)-1H-pyrazol-4-yl)-1,5-naphthyridine], the “UCP1 gene expression (conversion to brown adipocytes)” value (HDFs, ALK5 inhibitor II 4 μM in adipocyte induction medium, day 14, FIG. 13) is reported as “converted to brown adipocytes strongly expressing UCP1 gene”, the UCP1 gene expression (group 6: ALK5 inhibitor II 4 μM for days 0-8, then 6 days without it) is reported as “the highest expression of UCP1 gene was induced” and the UCP1 gene expression (groups 3-5, 7, 8: ALK5 inhibitor II 4 μM for Days 0-2, 0-4, 0-6, 0-10 or 0-14) is reported as “High expression of UCP1 gene was also induced”.
